Test results taken from ChEMBL document CHEMBL6153138, “Discovery of Novel Aromatic Urea-Imidazole Salt Derivatives for Cancer Therapy via Targeting ERK1/2” (J Med Chem, 2025).
Activity calls are given as the source filed them. No cut-off for these calls is given here.

Key:
[1] = test system: 4T1; test: Antitumor activity against mouse 4T1 cells implanted in female BALB/c mouse model assessed as reduction in tumor weight at 50 mg/kg, po qd measured for 18 days in presence of chloroquine; type: functional, organism-based; settings: time 18.0 day
[2] = test system: MCF7; test: Downregulation of total c-Myc expression in human MCF7 cells at 0.5 to 2 uM measured after 30 mins to 4 hrs by Western blot analysis; type: functional, cell-based; settings: dose 0.5-2 µM, time 30-240 min
[3] = Toxicity in female BALB/c mouse assessed as effect ALP level in serum at 25 to 50 mg/kg, po qd measured after 18 days by biochemical analysis; type: organism-based; settings: in vivo, 432 h, dose 25-50 mg/kg, time 18 day
[4] = test system: 4T1-Luc; test: Anti-metastatic activity in mouse 4T1-Luc cells assessed as reduction in destroyed alveolar wall at 25 to 50 mg/kg, po measured after 20 days by H and E staining based analysis; type: functional, organism-based; settings: dose 25-50 mg/kg, time 20.0 day
[5] = test system: Mitochondrial membrane; test: Induction of mitochondrial membrane potential loss in human MCF7 cells assessed as reduction in JC-1 aggregates by measuring decrease in red fluorescence at 0.5 uM by flow cytometry analysis (reference value: 24.7%); type: cell membranes; set-up: scale not given: the % may be the effect or the level left
[6] = test system: MCF7; test: Induction of autophagic flux in human MCF7 cells assessed as colocalization of LAMP1 at 1 uM incubated for 48 hrs in presence of chloroquine by immunofluorescence analysis; type: functional, cell-based
[7] = test system: MCF7; test: Induction of autophagy in human MCF7 cells assessed as increase in ATG5 level at 1 uM by Western blot analysis; type: functional, cell-based
[8] = biological target: Vascular endothelial growth factor receptor 1 (Homo sapiens) (UniProt P17948); test: Inhibition of human FLT1 at 10000 nM by DiscoverX KINOMEscan assay relative to control
[9] = test system: MCF7; test: Upregulation of ERK1/2 phosphorylation expression in human MCF7 cells measured after 30 mins to 4 hrs by Western blot analysis; type: functional, cell-based; settings: dose 0.5-2 µM, time 30-240 min
[10] = test system: 4T1; test: Antitumor activity against mouse 4T1 cells implanted in female BALB/c mouse model assessed as reduction in tumor growth administered po qd measured for 18 days; type: functional, organism-based; settings: dose 25-50 mg/kg, time 18.0 day
[11] = test system: MCF7; test: Upregulation of ERK1/2 phosphorylation expression in human MCF7 cells at 2 uM measured after 12 to 24 hrs by Western blot analysis; type: functional, cell-based; settings: time 12-24 hrs
[12] = test system: 4T1; test: Antitumor activity against mouse 4T1 cells implanted in female BALB/c mouse model assessed as increase in ERK1/2 phosphorylation at 50 mg/kg, po qd measured from 12 to 24 hrs by immunohistochemical analysis; type: functional, organism-based; settings: time 12-24 hrs
[13] = test system: MCF7; test: Induction of apoptosis in human MCF7 cells assessed as late apoptotic cells at 1 uM incubated for 48 hrs in presence of chloroquine by Annexin V/FITC and PI staining based flow cytometry analysis (reference value: 4.90%); type: functional
[14] = Oral availability in Sprague-Dawley rat at 10 mg/kg by LC-MS/MS analysis; type: ADME, organism-based; settings: in vivo
[15] = test system: MCF7; test: Upregulation of C-caspase3 protein expression in human MCF-7 cells at 1 uM incubated for 6 hrs in presence of chloroquine by Western blot analysis; type: functional, cell-based
[16] = biological target: Mitogen-activated protein kinase 3 (Homo sapiens, UniProt P27361); test: Induction of thermal stabilization of ERK1 (unknown origin) at 10 uM by differential scanning fluorimetry analysis
[17] = test system: MCF7; test: Induction of autophagic flux in human MCF7 cells assessed as colocalization of LC3B at 1 uM incubated for 48 hrs in presence of chloroquine by immunofluorescence analysis; type: functional, cell-based
[18] = test system: MCF7; test: Antiproliferative activity against human MCF7 cells harbouring ERK1 knockout incubated for 48 hrs by CCK-8 method; type: functional, cell-based
[19] = Toxicity in female BALB/c mouse assessed as effect on kidney at 50 mg/kg, po qd measured after 18 days in presence of chloroquine by H and E staining based analysis; type: organism-based; settings: in vivo, 432 h, time 18 day
[20] = test system: 4T1; test: Antitumor activity against mouse 4T1 cells implanted in female BALB/c mouse model assessed as tumor growth inhibition at 50 mg/kg, po qd measured for 18 days relative to control; type: functional; settings: 4T1, 432 h, time 18 day, read-out: TGI
[21] = test system: MCF7; test: Upregulation of E-cadherin expression in human MCF7 cells at 0.5 to 2 uM; type: functional, cell-based; settings: dose 0.5-2 µM
[22] = test system: MCF7; test: Induction of autophagic flux in human MCF7 cells assessed as decrease in p62 protein level at 0.5 to 2 uM incubated for 48 hrs by Western blotting analysis; type: functional, cell-based; settings: dose 0.5-2 µM
[23] = test system: 4T1; test: Antitumor activity against mouse 4T1 cells implanted in female BALB/c mouse model assessed as increase in ERK1/2 phosphorylation at 50 mg/kg, po qd measured from 30 mins to 8 hrs by immunohistochemical analysis; type: functional, organism-based; settings: time 30-480 min
[24] = test system: MCF7; test: Downregulation of N-cadherin expression in human MCF7 cells at 0.5 to 2 uM; type: functional, cell-based; settings: dose 0.5-2 µM
[25] = test system: 4T1-Luc; test: Anti-metastatic activity in mouse 4T1-Luc cells assessed as reduction in condensed nuclei at 25 to 50 mg/kg, po measured after 20 days by H and E staining based analysis; type: functional, organism-based; settings: dose 25-50 mg/kg, time 20.0 day
[26] = Toxicity in female BALB/c mouse assessed as effect on liver at 25 to 50 mg/kg, po qd measured after 18 days by H and E staining based analysis; type: organism-based; settings: in vivo, 432 h, dose 25-50 mg/kg, time 18 day
[27] = test system: MCF7; test: Induction of apoptosis in human MCF7 cells assessed as late apoptotic cells at 1 uM incubated for 48 hrs by Annexin V/FITC and PI staining based flow cytometry analysis (reference value: 2.5%); type: functional
[28] = test system: 4T1; test: Antitumor activity against mouse 4T1 cells implanted in female BALB/c mouse model assessed as tumor growth inhibition at 50 mg/kg, po qd measured for 18 days in presence of chloroquine relative to control; type: functional; settings: 4T1, 432 h, time 18 day, read-out: TGI
[29] = Apparent volume of distribution in Sprague-Dawley rat at 1 mg/kg, iv by LC-MS/MS analysis; type: ADME, organism-based; settings: in vivo, read-out: Vz
[30] = test system: MCF7; test: Antiproliferative activity against human MCF7 cells incubated for 48 hrs by CCK-8 method; type: functional, cell-based; settings: MCF7, 48 h
[31] = test system: MCF7; test: Inhibition of cell migration in human MCF7 cells at 0.5 to 2 uM incubated for 48 hrs by wound healing assay; type: functional, cell-based; settings: dose 0.5-2 µM
[32] = Toxicity in female BALB/c mouse assessed as effect on tumor at 50 mg/kg, po qd measured after 18 days in presence of chloroquine by H and E staining based analysis; type: organism-based; settings: in vivo, 432 h, time 18 day
[33] = test system: 4T1; test: Antitumor activity against mouse 4T1 cells implanted in female BALB/c mouse model assessed as reduction in c-Myc phosphorylation level at 50 mg/kg, po qd by immunohistochemical analysis; type: functional, organism-based
[34] = test system: MCF7; test: Downregulation of c-Myc phosphorylation expression in human MCF7 cells at 0.5 to 2 uM measured after 30 mins to 4 hrs by Western blot analysis; type: functional, cell-based; settings: dose 0.5-2 µM, time 30-240 min
[35] = test system: MCF7; test: Upregulation of caspase3 protein expression in human MCF-7 cells at 1 uM incubated for 6 hrs in presence of chloroquine by Western blot analysis; type: functional, cell-based
[36] = test system: A-375; test: Antiproliferative activity against human A-375 cells expressing B-Raf V600E mutant; type: functional, cell-based

Sequence of Mitogen-activated protein kinase 3 (P27361 whole entry): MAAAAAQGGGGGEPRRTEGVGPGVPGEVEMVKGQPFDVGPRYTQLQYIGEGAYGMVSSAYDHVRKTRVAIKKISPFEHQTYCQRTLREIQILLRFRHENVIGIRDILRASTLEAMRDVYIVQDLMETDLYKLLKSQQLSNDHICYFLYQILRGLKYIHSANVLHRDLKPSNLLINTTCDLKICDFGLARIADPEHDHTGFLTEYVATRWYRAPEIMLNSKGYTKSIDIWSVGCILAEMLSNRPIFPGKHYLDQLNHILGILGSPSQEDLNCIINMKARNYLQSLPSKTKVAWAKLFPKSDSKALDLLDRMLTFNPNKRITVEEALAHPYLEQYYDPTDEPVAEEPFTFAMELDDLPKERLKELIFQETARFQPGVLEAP
Sequence of Vascular endothelial growth factor receptor 1 (Homo sapiens) (P17948 whole entry): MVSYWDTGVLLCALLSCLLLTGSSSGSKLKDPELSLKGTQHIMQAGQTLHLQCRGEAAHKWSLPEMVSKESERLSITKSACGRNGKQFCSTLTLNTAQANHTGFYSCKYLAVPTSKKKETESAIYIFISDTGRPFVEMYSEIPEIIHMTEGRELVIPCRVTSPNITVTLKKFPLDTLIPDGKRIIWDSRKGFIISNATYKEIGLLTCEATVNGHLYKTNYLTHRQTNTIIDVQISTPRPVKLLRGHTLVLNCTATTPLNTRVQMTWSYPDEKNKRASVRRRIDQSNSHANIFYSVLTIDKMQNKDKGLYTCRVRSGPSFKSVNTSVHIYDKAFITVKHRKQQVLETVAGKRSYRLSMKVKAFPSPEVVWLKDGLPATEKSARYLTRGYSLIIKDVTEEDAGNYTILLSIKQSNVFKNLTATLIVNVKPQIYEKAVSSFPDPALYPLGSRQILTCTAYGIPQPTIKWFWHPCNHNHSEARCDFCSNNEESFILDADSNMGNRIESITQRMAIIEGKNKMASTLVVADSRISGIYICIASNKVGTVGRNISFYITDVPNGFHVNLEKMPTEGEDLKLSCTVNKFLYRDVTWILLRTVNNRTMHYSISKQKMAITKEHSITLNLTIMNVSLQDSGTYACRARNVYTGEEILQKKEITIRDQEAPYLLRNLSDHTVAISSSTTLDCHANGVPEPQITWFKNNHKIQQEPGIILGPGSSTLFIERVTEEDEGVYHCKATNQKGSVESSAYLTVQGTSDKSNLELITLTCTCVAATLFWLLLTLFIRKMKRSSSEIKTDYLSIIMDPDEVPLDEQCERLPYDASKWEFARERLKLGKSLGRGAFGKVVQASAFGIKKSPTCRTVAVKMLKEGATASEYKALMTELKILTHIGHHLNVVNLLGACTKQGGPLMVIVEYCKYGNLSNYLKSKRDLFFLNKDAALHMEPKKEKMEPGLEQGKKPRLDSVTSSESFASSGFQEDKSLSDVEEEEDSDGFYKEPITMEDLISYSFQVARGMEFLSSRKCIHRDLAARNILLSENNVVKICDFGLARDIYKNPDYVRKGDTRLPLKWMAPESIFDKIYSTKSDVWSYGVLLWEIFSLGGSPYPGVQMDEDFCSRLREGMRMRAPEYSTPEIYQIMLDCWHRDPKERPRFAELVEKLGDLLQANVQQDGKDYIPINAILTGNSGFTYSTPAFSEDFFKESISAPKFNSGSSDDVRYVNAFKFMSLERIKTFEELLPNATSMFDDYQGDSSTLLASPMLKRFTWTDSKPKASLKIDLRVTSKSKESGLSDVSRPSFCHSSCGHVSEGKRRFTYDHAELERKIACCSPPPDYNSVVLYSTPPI

In the case of `O=C(Nc1cc(C(F)(F)F)cc(C(F)(F)F)c1)N[C@@H](Cc1ccccc1)Cn1c[n+](Cc2ccc3ccccc3c2)c2ccccc21.[Br-]`, the Activity [1] is reported as “Active”, the Activity [2] is reported as “Active” and the Activity [3] is reported as “Non-toxic”. For the same compound, the Activity [4] was “Active”, the Activity [5] was 17.2% and the Activity [6] was “Active”. The Activity [7] was “Active”, the inhibition [8] was 19% and the Activity [9] was “Dose-dependent-effect”. For the same compound, the Activity [10] was “Dose-dependent-effect”, the Activity [11] was “inactive” and the Activity [12] was “inactive”. For the same compound, the Activity [13] was 26.9%, the bioavailability [14] was 37.1% and the Activity [15] was “Active”. The Activity [16] was “Active”, the Activity [17] was “Active” and the Activity [18] was “Not active; Compound Showed Less Sensitivity Response”. For the same compound, the Activity [19] was “Non-toxic”, the inhibition in vivo at 50 mg/kg [20] was 54.9% and the Activity [21] was “Active”. The Activity [22] was “Active”, the Activity [23] was “Active” and the Activity [24] was “Active”. For the same compound, the Activity [25] was “Active”, the Activity [26] was “Non-toxic” and the Activity [27] was 9.6%. It also gave an inhibition in vivo at 50 mg/kg [28] of 88.1%, a Vd [29] of 4.41 L/kg and an IC50 [30] of 0.67 µM. The inhibition [31] was “Active”, the Activity [32] was “Non-toxic” and the Activity [33] was “Active”. For the same compound, the Activity [34] was “Active”, the Activity [35] was “Active” and the IC50 [36] was 0.75 µM.
